In patent US12590108B2, “Boracic acid compound” (Phaeno Therapeutics Co., Ltd, priority 2020, dated 2026):

Columns and labels:
[1] = test system: Klebsiella pneumoniae ATCC BAA-1705; experiment: Mouse thigh muscle infection model, bacterial load; assay type: in vivo, CD-1 female mice; conditions: antibiotic alone 100 mg/kg i.v. q2h; endpoint 12 h
Experimental: (§1) 36 CD-1 female mice were divided into 12 cages with 3 […] in each cage. The day of infection was denoted as day 0.
(§2) Immunosuppressant cyclophosphamide at 150 mg/kg was injected intraperitoneally on day −4 and immunosuppressant cyclophosphamide at 100 mg/kg was injected intraperitoneally on day −1 to induce immunodeficient mice.
On day −1, the strain Klebsiella pneumoniae ATCC BAA-1705 was resuscitated on an MHA plate. Resuscitated colonies were picked and dissolved in sterile physiological saline to prepare a bacterial solution with a concentration of 5.6E+07 CFU/mL for thigh muscle infection in mice. The initial time of infection was denoted as 0 h, and 100 μL of the bacterial solution was injected into each mouse at the thigh muscle at 0 h, that is, the inoculation amount was 5.6E+06 CFU/mouse. 2 h after infection, dosing was performed according to the experimental scheme. The specific experimental scheme was as follows (see Table 4): • (1) 2 h after infection: for the 1st cage of mice, at the endpoint, thigh muscle tissue was taken and placed in 10 mL of sterile physiological saline, the tissue was homogenized by a homogenizer, and the homogenate was diluted in a gradient and spotted in a plate, with two replicates for each mouse. • (2) 2 h after infection: the 2nd to 12th cages were respectively treated at 10 mL/kg by volume according to the body weight of the mice, the 2nd cage of mice were given a vehicle by intravenous injection every 2 h, and the endpoint was 12 h; the 3rd cage of mice were given 100 mg/kg of meropenem by intravenous injection every 2 h, and the endpoint was 12 h; the 4th cage of mice were given 100 mg/kg of meropenem and 20 mg/kg of QPX7728 by intravenous injection every 2 h, and the endpoint was 12 h; the 5th cage of mice were given 100 mg/kg of meropenem and 100 mg/kg of compound 15 by intravenous injection every 2 h, and the endpoint was 12 h; the 6th cage of mice were given 100 mg/kg of meropenem and 20 mg/kg of compound 15 by intravenous injection every 2 h, and the endpoint was 12 h; the 7th cage of mice were given 100 mg/kg of meropenem and 4 mg/kg of compound 15 by intravenous injection every 2 h, and the endpoint was 12 h; the 8th cage of mice were given 100 mg/kg of cefepime by intravenous injection every 2 h, and the endpoint was 12 h; the 9th cage of mice were given 100 mg/kg of cefepime and 20 mg/kg of QPX7728 by intravenous injection every 2 h, and the endpoint was 12 h; the 10th cage of mice were given 100 mg/kg of cefepime and 100 mg/kg of compound 15 by intravenous injection every 2 h, and the endpoint was 12 h; the 11th cage of mice were given 100 mg/kg of cefepime and 20 mg/kg of compound 15 by intravenous injection every 2 h, and the endpoint was 12 h; and the 12th cage of mice were given 100 mg/kg of cefepime and 4 mg/kg of compound 15 by intravenous injection every 2 h, and the endpoint was 12 h. At the endpoint of 12 h, thigh muscle tissue was taken and placed in 10 mL of sterile physiological saline, the tissue was homogenized by a homogenizer, and the homogenate was diluted in a gradient and spotted in a plate, with two replicates for each mouse. The bacterial load in the thigh muscle tissue of the mice was counted, and the experiment was summarized as follows (see Table 5): […]

[2] = test system: Klebsiella pneumoniae ATCC BAA-1705; experiment: Mouse lung infection model, bacterial load; assay type: in vivo, CD-1 female mice; conditions: antibiotic alone 100 mg/kg i.v. q2h; endpoint 12 h
Experimental: as §1, §2
On day −1, the strain Klebsiella pneumoniae ATCC BAA-1705 was resuscitated on an MHA plate. Resuscitated colonies were picked and dissolved in sterile physiological saline to prepare a bacterial solution with a concentration of 2.75E+08 CFU/mL for lung infection by nasal drip. The initial time of infection was denoted as 0 h, and 50 μL of the bacterial solution was injected into each mouse by nasal drip at 0 h, that is, the inoculation amount was 1.38E+07 CFU/mouse. 2 h after infection, dosing was performed according to the experimental scheme. The specific experimental scheme was as follows (see Table 6): • (1) 2 h after infection: for the 1st cage of mice, at the endpoint, lung tissue was taken and placed in 10 mL of sterile physiological saline, the tissue was homogenized by a homogenizer, and the homogenate was diluted in a gradient and spotted in a plate, with two replicates for each mouse. • (2) 2 h after infection: the 2nd to 12th cages were respectively treated at 10 mL/kg by volume according to the body weight of the mice, the 2nd cage of mice were given a vehicle by intravenous injection every 2 h, and the endpoint was 12 h; the 3rd cage of mice were given 100 mg/kg of meropenem by intravenous injection every 2 h, and the endpoint was 12 h; the 4th cage of mice were given 100 mg/kg of meropenem and 20 mg/kg of QPX7728 by intravenous injection every 2 h, and the endpoint was 12 h; the 5th cage of mice were given 100 mg/kg of meropenem and 100 mg/kg of compound 15 by intravenous injection every 2 h, and the endpoint was 12 h; the 6th cage of mice were given 100 mg/kg of meropenem and 20 mg/kg of compound 15 by intravenous injection every 2 h, and the endpoint was 12 h; the 7th cage of mice were given 100 mg/kg of meropenem and 4 mg/kg of compound 15 by intravenous injection every 2 h, and the endpoint was 12 h; the 8th cage of mice were given 100 mg/kg of cefepime by intravenous injection every 2 h, and the endpoint was 12 h; the 9th cage of mice were given 100 mg/kg of cefepime and 20 mg/kg of QPX7728 by intravenous injection every 2 h, and the endpoint was 12 h; the 10th cage of mice were given 100 mg/kg of cefepime and 100 mg/kg of compound 15 by intravenous injection every 2 h, and the endpoint was 12 h: the 11th cage of mice were given 100 mg/kg of cefepime and 20 mg/kg of compound 15 by intravenous injection every 2 h, and the endpoint was 12 h; and the 12th cage of mice were given 100 mg/kg of cefepime and 4 mg/kg of compound 15 by intravenous injection every 2 h, and the endpoint was 12 h. At the endpoint, lung tissue was taken and placed in 10 mL of sterile physiological saline, the tissue was homogenized by a homogenizer, and the homogenate was diluted in a gradient and spotted in a plate, with two replicates for each mouse. The bacterial load in the lung tissue of the mice was counted, and the experiment was summarized as follows (see Table 7): […]

CO/N=C(\C(=O)N[C@@H]1C(=O)N2C(C(=O)[O-])=C(C[N+]3(C)CCCC3)CS[C@H]12)c1csc(N)n1 [Cefepime, cefepime, reference compound]
Average CFU in mice (thigh muscle tissue) [1]: 4.25E+07 CFU/mouse
Average CFU in mice (lung tissue) [2]: 1.90E+08 CFU/mouse
